Assay: recombinant UMI read abundance after kanamycin selection (control-corrected) (log10(CPM+1)); higher = more efficient recombination; extreme values may be limits of the assay; sequences stand for … in AGTGCAGAGAAAATCGGCCAGTTTTCTCTGCCTGCAGTCCGCATGCCGTGGGACCCCTTGGGTTCTAACCTGTTGCCTAGATTTATGCAGCGGACTGCCTTTCTCCCAAAGTGATAAACCGG…AGGTTGGTTTCACT; site = the 11-nt donor
Outline: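 After plating on IPTG (0.07 mM) plus kanamycin, or unselected, in two replicates, recombinant UMIs were PCR-amplified across the donor–target junction and sequenced. The cells were Escherichia coli co-electroporated with a UMI-tagged donor and donor-binding-loop pair library and a target plasmid with a fixed target and T7-inducible IS621 bridge recombinase. Values are log10(CPM+1), with CPM averaged over replicates and scaled by control-derived factors.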
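Further: IS621 bridge recombinase in Escherichia coli cells against a fixed T5 target plasmid.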

| Sequence | recombinant UMI read abundance (log10) |
| --- | --- |
| CTACTAACATGGACCGGTTTTCCCGGTAATCCGTATTTGGT (site CTACTAACTAC) | 0.461 |
| CTACTAACATGGACCGGTTTTCCCGGTAATCCGTATTTGGT (site CTACTAACTCC) | 0.0128 |
| CTACTAACATGGACCGGTTTTCCCGGTAATCCGTATTTGGT (site CTACTAACTGC) | 0 |
| CTACTAACATGGACCGGTTTTCCCGGTAATCCGTATTTGGT (site CTACTAACTTC) | 0.0138 |
| CTACTAGCATGGACCGGTTTTCCCGGTAATCCGTATTTGGA (site CTACTAACTTC) | 1.43 |
| CTACTAGCATGGACCGGTTTTCCCGGTAATCCGTATTTGGA (site CTACTACCTTC) | 0.00939 |
| CTACTAGCATGGACCGGTTTTCCCGGTAATCCGTATTTGGA (site CTACTAGCTTC) | 1.52 |
| CTACTAGCATGGACCGGTTTTCCCGGTAATCCGTATTTGGA (site CTACTATCTTC) | 2.05 |
| CTACTGACATGGACCGGTTTTCCCGGTAATCCGTATTTGGA (site CTACTAACTTC) | 1.76 |
| CTACTGACATGGACCGGTTTTCCCGGTAATCCGTATTTGGA (site CTACTCACTTC) | 0.015 |
| CTACTGACATGGACCGGTTTTCCCGGTAATCCGTATTTGGA (site CTACTGACTTC) | 0.475 |
| CTACTGACATGGACCGGTTTTCCCGGTAATCCGTATTTGGA (site CTACTTACTTC) | 0.67 |
| CTACTTACATGGACCGGTTTTCCCGGTAATCCGTATTTGGA (site CTACTAACTTC) | 0.0935 |
| CTACTTACATGGACCGGTTTTCCCGGTAATCCGTATTTGGA (site CTACTCACTTC) | 0.209 |
| CTACTTACATGGACCGGTTTTCCCGGTAATCCGTATTTGGA (site CTACTGACTTC) | 0.0111 |
| CTACTTACATGGACCGGTTTTCCCGGTAATCCGTATTTGGA (site CTACTTACTTC) | 1.32 |
| CTACTTTCATGGACCGGTTTTCCCGGTAATCCGTATTTGAC (site CTACTTTCTGT) | 1.94 |
| CTACTTTCATGGACCGGTTTTCCCGGTAATCCGTATTTGAC (site CTAGTATCTGT) | 0 |
| CTAGAATCATGGACCGGTTTTCCCGGTAATCCGTATTTGAC (site CTAGAATCTGT) | 2.83 |
| CTAGAATCATGGACCGGTTTTCCCGGTAATCCGTATTTGAC (site CTAGCATCTGT) | 0 |
| CTAGAATCATGGACCGGTTTTCCCGGTAATCCGTATTTGAC (site CTAGGATCTGT) | 1.28 |
| CTAGAATCATGGACCGGTTTTCCCGGTAATCCGTATTTGAC (site CTAGTATCTGT) | 2 |
| CTAGAGGCATGGACCGGTTTTCCCGGTAATCCGTATTTGTT (site CTAGAGGCTAA) | 1.82 |
| CTAGCAGCATGGACCGGTTTTCCCGGTAATCCGTATTTGCT (site CAAGCAGCTAG) | 0.38 |
| CTAGCAGCATGGACCGGTTTTCCCGGTAATCCGTATTTGCT (site CCAGCAGCTAG) | 0.129 |

| Sequence | recombinant UMI read abundance (log10) |
| --- | --- |
| CTAGCAGCATGGACCGGTTTTCCCGGTAATCCGTATTTGCT (site CGAGCAGCTAG) | 0 |
| CTAGCAGCATGGACCGGTTTTCCCGGTAATCCGTATTTGCT (site CTAGCAGCTAG) | 1.36 |
| CTAGCGCCATGGACCGGTTTTCCCGGTAATCCGTATTTGTG (site CAAGCGCCTCA) | 0.0754 |
| CTAGCGCCATGGACCGGTTTTCCCGGTAATCCGTATTTGTG (site CCAGCGCCTCA) | 0.0159 |
| CTAGCGCCATGGACCGGTTTTCCCGGTAATCCGTATTTGTG (site CGAGCGCCTCA) | 0.00935 |
| CTAGCGCCATGGACCGGTTTTCCCGGTAATCCGTATTTGTG (site CTAGCGCCTCA) | 0.446 |
| CTAGGACCATGGACCGGTTTTCCCGGTAATCCGTATTTGGG (site CAAGGACCTCC) | 0.0215 |
| CTAGGACCATGGACCGGTTTTCCCGGTAATCCGTATTTGGG (site CCAGGACCTCC) | 0.00872 |
| CTAGGACCATGGACCGGTTTTCCCGGTAATCCGTATTTGGG (site CGAGGACCTCC) | 0 |
| CTAGGACCATGGACCGGTTTTCCCGGTAATCCGTATTTGGG (site CTAGGACCTCC) | 0.0095 |
| CTAGGACCATGGACCGGTTTTCCCGGTAATCCGTATTTGTG (site CTAGGACCTCA) | 0.00443 |
| CTAGGATCATGGACCGGTTTTCCCGGTAATCCGTATTTGAC (site CTAGAATCTGT) | 2.89 |
| CTAGGATCATGGACCGGTTTTCCCGGTAATCCGTATTTGAC (site CTAGCATCTGT) | 1.06 |
| CTAGGATCATGGACCGGTTTTCCCGGTAATCCGTATTTGAC (site CTAGGATCTGT) | 1.9 |
| CTAGGATCATGGACCGGTTTTCCCGGTAATCCGTATTTGAC (site CTAGTATCTGT) | 1.35 |
| CTAGTACCATGGACCGGTTTTCCCGGTAATCCGTATTTGGC (site CTAGTACCTGC) | 0 |
| CTAGTACCATGGACCGGTTTTCCCGGTAATCCGTATTTGGC (site CTAGTATCTGT) | 1.63 |
| CTAGTAGCATGGACCGGTTTTCCCGGTAATCCGTATTTGAC (site CTAGTAACTGT) | 2.01 |
| CTAGTAGCATGGACCGGTTTTCCCGGTAATCCGTATTTGAC (site CTAGTACCTGT) | 0 |
| CTAGTAGCATGGACCGGTTTTCCCGGTAATCCGTATTTGAC (site CTAGTAGCTGT) | 2.87 |
| CTAGTAGCATGGACCGGTTTTCCCGGTAATCCGTATTTGAC (site CTAGTATCTGT) | 2.74 |
| CTAGTATCATGGACCGGTTTTCCCGGTAATCCGTATTTGGC (site CTAGTATCTGA) | 2.25 |
| CTAGTATCATGGACCGGTTTTCCCGGTAATCCGTATTTGGC (site CTAGTATCTGC) | 3.32 |
| CTAGTATCATGGACCGGTTTTCCCGGTAATCCGTATTTGGC (site CTAGTATCTGG) | 2.2 |
| CTAGTATCATGGACCGGTTTTCCCGGTAATCCGTATTTGGC (site CTAGTATCTGT) | 2.76 |

| Sequence | recombinant UMI read abundance (log10) |
| --- | --- |
| CTAGTATCATGGACCGGTTTTCCCGGTAATCCGTATTTGGT (site CTAGTATCTAC) | 1.85 |
| CTAGTATCATGGACCGGTTTTCCCGGTAATCCGTATTTGGT (site CTAGTATCTGT) | 2.06 |
| CTAGTATCATGGACCGGTTTTCCCGGTAATCCGTATTTGTC (site CTAGTATCTGA) | 3.35 |
| CTAGTATCATGGACCGGTTTTCCCGGTAATCCGTATTTGTC (site CTAGTATCTGC) | 3.17 |
| CTAGTATCATGGACCGGTTTTCCCGGTAATCCGTATTTGTC (site CTAGTATCTGG) | 3.08 |
| CTAGTATCATGGACCGGTTTTCCCGGTAATCCGTATTTGTC (site CTAGTATCTGT) | 2.65 |
| CTAGTCTCATGGACCGGTTTTCCCGGTAATCCGTATTTGAG (site CTAGTATCTGT) | 0 |
| CTAGTCTCATGGACCGGTTTTCCCGGTAATCCGTATTTGAG (site CTAGTCTCTCT) | 0.61 |
| CTAGTCTCATGGACCGGTTTTCCCGGTAATCCGTATTTGTC (site CTAGTATCTGT) | 0.445 |
| CTAGTCTCATGGACCGGTTTTCCCGGTAATCCGTATTTGTC (site CTAGTCTCTGA) | 3.48 |
| CTAGTTGCATGGACCGGTTTTCCCGGTAATCCGTATTTGAC (site CTAGTATCTGT) | 0.412 |
| CTAGTTGCATGGACCGGTTTTCCCGGTAATCCGTATTTGAC (site CTAGTTGCTGT) | 2.24 |
| CTATAGCCATGGACCGGTTTTCCCGGTAATCCGTATTTGCG (site CTATAGCCTCG) | 1.01 |
| CTATATCCATGGACCGGTTTTCCCGGTAATCCGTATTTGTA (site CTATATCCTTA) | 1.51 |
| CTATCATCATGGACCGGTTTTCCCGGTAATCCGTATTTGAT (site CTATCATCTAT) | 0.00941 |
| CTATGATCATGGACCGGTTTTCCCGGTAATCCGTATTTGCA (site CTATGATCTTG) | 2.62 |
| CTATGCTCATGGACCGGTTTTCCCGGTAATCCGTATTTGAA (site CAATGCTCTTT) | 0.941 |
| CTATGCTCATGGACCGGTTTTCCCGGTAATCCGTATTTGAA (site CCATGCTCTTT) | 0.497 |
| CTATGCTCATGGACCGGTTTTCCCGGTAATCCGTATTTGAA (site CGATGCTCTTT) | 0.383 |
| CTATGCTCATGGACCGGTTTTCCCGGTAATCCGTATTTGAA (site CTATGCTCTTT) | 2.25 |
| CTATTACCATGGACCGGTTTTCCCGGTAATCCGTATTTGAG (site CTATTACCTCT) | 0.00551 |
| CTATTATCATGGACCGGTTTTCCCGGTAATCCGTATTTGAC (site CTAATATCTGT) | 0 |
| CTATTATCATGGACCGGTTTTCCCGGTAATCCGTATTTGAC (site CTACTATCTGT) | 1.96 |
| CTATTATCATGGACCGGTTTTCCCGGTAATCCGTATTTGAC (site CTAGTATCTGT) | 1.61 |
| CTATTATCATGGACCGGTTTTCCCGGTAATCCGTATTTGAC (site CTATTATCTGT) | 2.82 |

From the supplement of paper PMC11208160
